Measurements from patent publication US5629340A, “Angiogenesis inhibitor and novel compound” (Tsumura & Co., priority 1993, dated 1997).

The molecules below were run on HOME cells (human omental capillary endothelial cells) (assay: Tube formation of HOME cells induced by TGFα on type-1 collagen gel). Details: Homo sapiens, Endothelial cell; final concentration 10 μg/ml; read-out: inhibition of tube formation induced by TGFα ("inhibited to").
Format: cell-based
From the text: (§1) An in-vitro angiogenesis models have been established, using human omental capillary endothelial cells (hereinafter referred to as "HOME cells"). One is the angiogenesis models in a process of wound healing formed when the HOME cells are damaged with a razor blade. Another one is a model of HOME cell migration, synthesis of a tissue plasminogen activation factor (t-PA), and HOME-cell tube formation, accelerated by TGFα.
The activity of the active ingredients to the tube formation of the HOME cells induced by TGFα was determined.
At first, 8 volume of a type 1 collagen solution (manufactured by Nitta Gelatin .), 1 volume of 10×M-199 and 1 volume of a reconstituted buffer) [200 mM Hepes, 0.05N sodium hydroxide and 260 mM sodium hydrogen carbonate] were mixed under ice cooling. The mixture was placed on plastic dishes (30 mm diameter, manufactured by Corning.) and allowed to stand still at 37° C. to make gel, thereby preparing a type-1 collagen gel.
Subsequently, the HOME cells were suspended in 10% FBS containing M-199 medium and then dispersed on the type 1 collagen gel mentioned above and incubated at 37° C.
When the HOME cells were incubated to confluent , they were transferred to 1% human serum containing M-199 mediums to which compounds (1), (2) and (4) to (12) (a final concentration: 10 μg/ml) were individually added together with TGFα (final concentration 10 ng/ml). These mediums were incubated for 3 days.
The HOME cells were also transferred to a 1% human serum containing M-199 medium with TGFα alone to prepare a control group and transferred to a 1% human serum containing M-199 medium to prepare a non-treatment group. They were also incubated for 3 days.
Two days after the incubation started, the culture mediums were exchanged. At three days, photographic picture of each dish was taken by a video camera (R5000H, Fuji, Tokyo), using a phase-contrast microscope at 200 magnification of the object. 8 views were taken for each dishes. The total tube length per one view formed by the HOME cells was measured by using a Cosmozone IS image analyzer (manufactured by Nikon).

Q: Which Tube formation remaining (%) at 10 µg/mL does the source give for `COc1cc(-c2oc(C)c(-c3ccc(O)c(OC)c3)c2C)ccc1O` [Compound 9, 2,4-bis(4-hydroxy-3-methoxyphenyl)-3,5-dimethylfuran] here?
A: 50 to 80%

Q: Which Tube formation remaining (%) at 10 µg/mL does the source give for `COc1ccc(-c2oc(-c3ccc(OC)c(OC)c3)c(C)c2C)cc1OC` [Compound 2] here?
A: 40 to 60%

Q: `CCOC(=O)c1c(-c2ccc(O)c(OC)c2)oc(-c2ccc(O)c(OC)c2)c1C(=O)OCC` [Compound 12, Diethyl 2,5-bis(4'-hydroxy-3'-methoxyphenyl)furan-3,4-dicarboxylate] was tested. Which Tube formation remaining (%) at 10 µg/mL did it give?
A: 50 to 80%

Same assay, conditions: Table 6; compound 10 μg/ml; TGFα 10 ng/ml; 3 days; non-treatment 0.616, control 2.045

Q: Which “Total tube length/HPF” value does the source give for `COc1cc(-c2oc(-c3ccc(OC(C)=O)c(OC)c3)c(C)c2C)ccc1OC(C)=O` [Compound 4] here?
A: 2.127 10^3 μm

Q: Which “Total tube length/HPF” value does the source give for `COc1ccc(-c2oc(-c3ccc(OC)c(OC)c3)c(C)c2C)cc1OC` [Compound 2] here?
A: 1.115 10^3 μm

Same assay, conditions: Table 7; compound 10 μg/ml; TGFα 10 ng/ml; 3 days; non-treatment 0.551, control 1.561

Q: How did the “Total length of lumen/HPF” value turn out when `COc1cc(-c2oc(C)c(-c3ccc(O)c(OC)c3)c2C)ccc1O` [Compound 9, 2,4-bis(4-hydroxy-3-methoxyphenyl)-3,5-dimethylfuran] was run?
A: 0.496 10^3 μm

Q: `CCOC(=O)c1c(-c2ccc(O)c(OC)c2)oc(-c2ccc(O)c(OC)c2)c1C(=O)OCC` [Compound 12, Diethyl 2,5-bis(4'-hydroxy-3'-methoxyphenyl)furan-3,4-dicarboxylate] was tested. Which “Total length of lumen/HPF” value did it give?
A: 0.736 10^3 μm

These molecules were tested on HOME cells (human omental capillary endothelial cells) (assay: Migration of wounded HOME cells (wound healing model), with or without TGFα). Details: Endothelial cell, 24 h, TGFα Free, compound added, 24 h, read-out: Cell-migration rate (% of non-treatment group).
Format: cell-based
Set-up: activity: dose or concentration left out as unconfirmed
From the text: as §1
Compound(s) as an active ingredient of the angiogenesis inhibitor of the present invention (hereinafter also simply refer:red to as "compound(s)") were evaluated with respect to an activity to cell migration with human HOME cells in which a wound healing had been made by a razor blade, and cell migration activity accelerated by TGFα.
The HOME cells to be used in this experiment were isolated from human omental fatty tissues and cultured in a M-199 medium containing 10% fetal bovine serum (FBS) over 3 to 5 generations.
TGFα was obtained from Collaborative Research Inc., Bedford, Ma.
The HOME cells were cultured as a monolayer on a collagen-coated plastic dish (35 mm .phi.) to confluent. The thus obtained HOME cells were wounded with a razor blade and then washed twice with a phosphate buffer saline solution (PBS). […] Further, HOME cells were cultured in 1% human serum containing M-199 medium with neither active ingredient nor TGFα at 37° C for 24 hours to prepare a non-treatment group.
On the dish on which the HOME cells were cultured, the numbers of migrated HOME cells were counted, which migrated to the exposed portion of the Collagen-coated plastic dish. A cell-migration rate was calculated, regarding the cell migration numbers of the non-treatment group as 100%.

Q: For `COc1cc(-c2oc(-c3ccc(OC(C)=O)c(OC)c3)c(C)c2C)ccc1OC(C)=O` [Compound 4], which activity is on record?
A: 50.2%

Q: With `COc1cc(-c2oc(C)c(-c3ccc(O)c(OC)c3)c2C)ccc1O` [Compound 9, 2,4-bis(4-hydroxy-3-methoxyphenyl)-3,5-dimethylfuran] as the molecule, how does the activity read?
A: 63.3%

Q: `COc1ccc(-c2oc(-c3ccc(OC)c(OC)c3)c(C)c2C)cc1OC` [Compound 2] was tested. Which activity did it give?
A: 69%

Q: How did the activity turn out when `Cc1c(-c2ccc(O)c(O)c2)oc(-c2ccc(O)c(O)c2)c1C` [Compound 3, 3,4-dimethyl-2,5-bis(3,4-dihydroxyphenyl)furan] was run?
A: 52.7%

Q: For `CCOC(=O)c1c(-c2ccc(O)c(OC)c2)oc(-c2ccc(O)c(OC)c2)c1C(=O)OCC` [Compound 12, Diethyl 2,5-bis(4'-hydroxy-3'-methoxyphenyl)furan-3,4-dicarboxylate], which activity is on record?
A: 72.7%

Same assay, conditions: Endothelial cell, 24 h, TGFα added, compound added, 24 h, read-out: Cell-migration rate (% of non-treatment group)

Q: For `COc1cc(-c2oc(-c3ccc(OC(C)=O)c(OC)c3)c(C)c2C)ccc1OC(C)=O` [Compound 4], which activity is on record?
A: 60.4%

Q: How did the activity turn out when `COc1cc(-c2oc(C)c(-c3ccc(O)c(OC)c3)c2C)ccc1O` [Compound 9, 2,4-bis(4-hydroxy-3-methoxyphenyl)-3,5-dimethylfuran] was run?
A: 73%

Q: With `COc1ccc(-c2oc(-c3ccc(OC)c(OC)c3)c(C)c2C)cc1OC` [Compound 2] as the molecule, how does the activity read?
A: 68.2%

Q: Which activity does the source give for `Cc1c(-c2ccc(O)c(O)c2)oc(-c2ccc(O)c(O)c2)c1C` [Compound 3, 3,4-dimethyl-2,5-bis(3,4-dihydroxyphenyl)furan] here?
A: 73.1%

Q: With `CCOC(=O)c1c(-c2ccc(O)c(OC)c2)oc(-c2ccc(O)c(OC)c2)c1C(=O)OCC` [Compound 12, Diethyl 2,5-bis(4'-hydroxy-3'-methoxyphenyl)furan-3,4-dicarboxylate] as the molecule, how does the activity read?
A: 58.4%

These molecules were tested on M-5076 (mouse ovarian reticulo sarcoma) (assay: In-vivo anti-tumor activity, M-5076 transplanted in C57BL6 mouse). Details: 3.2 mg/kg; intravascular, 4 times every two days; day 21; control 100.0.
Method: In-vivo anti-tumor activity of the compounds of the present invention was tested.
M-5076 (mouse ovarian reticulo sarcoma, mouse ovary cancer) was intraperitoneally (i.p.) inoculated in C57BL6 mouse, and maintained by ip passage. The obtained ascites tumor cells werediluted with PBS (-) to cellular number of 2×10^7 cells/ml. 50 μl of the dilute solution (cellular number: 1×10^6) was subcutaneously (s.c.) transplanted to the right dorsal part of C57BL6 mouse (6 week old, female). From 7 days after the tumor cell inocutation, a sample was administrated to the mouse. The sample was prepared by suspending compounds (1) and (8) in 2% Tween 80 PBS (-) solution. The suspension was subcutaneously injected to a mouse in a dose of 100 μl per mouse. Three dosages, i.e., 400 mg/kg, 200 mg/kg and 100 mg/kg were set for the injection.
Mitomycin C (MMC) and Fumagillin Were employed in positive controls. MMC was intravascularly injected 4 times every two day. Other test samples and Fumagillin were intravascularly injected 6 times in total in a rate of 3 times/week. The test was carried out using N=9 in controls and N=5 in other groups.
Twenty one days after the inocutation of the tumor cells (14 days after the next day of the initiation of the sample injection), a relative tumor proliferation rate were examined to determine the anti-tumor effect of the samples.
The relative tumor proliferation rate are indicated by the following equation.
A significant difference test was performed by the Mann-Whitney U-Test. [formula]

Q: How did the “Relative tumor proliferation rate (Trv/Crv(%))” value turn out when `CO[C@@]12[C@H](COC(N)=O)C3=C(C(=O)C(C)=C(N)C3=O)N1C[C@@H]1N[C@@H]12` [MMC, Mitomycin C, reference compound] was run?
A: 7.9%

Same assay, conditions: 30 mg/kg; 6 injections, 3 times/week; day 21; control 100.0

Q: Which “Relative tumor proliferation rate (Trv/Crv(%))” value does the source give for `CO[C@@H]1[C@H](OC(=O)/C=C/C=C/C=C/C=C/C(=O)O)CC[C@]2(CO2)[C@H]1[C@@]1(C)O[C@@H]1CC=C(C)C` [Fumagillin, reference compound] here?
A: 41.7%
